ChEMBL document CHEMBL4354789, “Recent advances in the discovery of indoleamine 2,3-dioxygenase 1 (IDO1) inhibitors” (Medchemcomm, 2019)
Blank lines part the entries; values can stand above or below the compound they belong to.

What was measured:
[1] = tested on: Plasmodium falciparum; experiment: Antimalarial activity against chloroquine-sensitive Plasmodium falciparum 3D7 infected in erythrocytes assessed as reduction in parasite growth preincubated for 48 hrs followed by addition of [3H]Hypoxanthine and measured after 24 hrs by radiometric method; assay type: functional, organism-based
[2] = tested on: Homo sapiens; experiment: In vivo inhibition of IDO1 in human patient assessed as reduction in Serum kynurenine level at 100 to 200 mg, po qd for 2 weeks co-treated with nivo-lumab relative to control; assay type: functional
[3] = tested on: Homo sapiens; experiment: In vivo inhibition of IDO1 in human patient assessed as reduction in Serum kynurenine level at 25 to 200 mg, po qd for 2 weeks co-treated with nivo-lumab relative to control; assay type: functional
[4] = molecular target: T1, Indoleamine 2,3-dioxygenase 1 (Homo sapiens, UniProt P14902); experiment: Inhibition of IDO1 in HEK293 cells assessed as reduction in L-kynurenine formation incubated for 48 hrs using L-tryptophan as substrate; assay type: cell-based
[5] = molecular target: T1, Indoleamine 2,3-dioxygenase 1; experiment: Inhibition of recombinant human IDO1 expressed in Escherichia coli assessed as reduction in formation of kynurenine using L-tryptophan as substrate by methylene blue staining based assay
[6] = molecular target: T1, Indoleamine 2,3-dioxygenase 1; experiment: Inhibition of IDO1 (unknown origin)
[7] = molecular target: T1, Indoleamine 2,3-dioxygenase 1; experiment: Inhibition of recombinant human N-terminal His-tagged IDO1 expressed in Escherichia coli using L-tryptophan as substrate incubated for 60 mins by HPLC analysis
[8] = molecular target: T1, Indoleamine 2,3-dioxygenase 1; experiment: Inhibition of IDO1 in LPS-induced human THP1 cells
[9] = molecular target: T1, Indoleamine 2,3-dioxygenase 1; experiment: Inhibition of recombinant human IDO1 using L-tryptophan as substrate preincubated for 15 mins followed by substrate addition by methylene blue staining based spectrometric method
[10] = molecular target: T1, Indoleamine 2,3-dioxygenase 1; experiment: Inhibition of IDO1 in IFNgamma-indced human HeLa cells incubated for 48 hrs using L-tryptophan as substrate by colorimetric analysis; assay type: cell-based
[11] = tested on: Jurkat; experiment: Cytotoxicity against human Jurkat cells assessed as growth inhibition after 72 hrs by MTT assay; assay type: functional
[12] = molecular target: T2, Indoleamine 2,3-dioxygenase 1 (Mus musculus, UniProt P28776); experiment: Inhibition of mouse IDO1 expressed in Escherichia coli Rosetta (DE3) cells
[13] = tested on: A549; experiment: Cytotoxicity against human A549 cells assessed as growth inhibition after 72 hrs by MTT assay; assay type: functional; settings: A549, 72 h
[14] = molecular target: T1, Indoleamine 2,3-dioxygenase 1; experiment: Inhibition of recombinant human IDO1 expressed in Escherichia coli assessed as reduction in formation of kynurenine using L-tryptophan as substrate measured after 30 mins
[15] = molecular target: T1, Indoleamine 2,3-dioxygenase 1; experiment: Inhibition of human IDO1 expressed in COS1 cells assessed as reduction in N-formyl-kynurenine level incubated for 16 hrs; assay type: cell-based
[16] = molecular target: T1, Indoleamine 2,3-dioxygenase 1; experiment: Inhibition of recombinant human His6-tagged IDO1 expressed in Escherichia coli BL21DE3pLysS cells assessed as reduction in N-formyl-kynurenine level using L-tryptophan as substrate incubated for 60 mins
[17] = molecular target: T2, Indoleamine 2,3-dioxygenase 1; experiment: Inhibition of mouse IDO1 expressed in COS1 cells assessed as reduction in N-formyl-kynurenine level incubated for 16 hrs; assay type: cell-based
[18] = molecular target: T1, Indoleamine 2,3-dioxygenase 1; experiment: Inhibition of recombinant human His6-tagged IDO1 using L-tryptophan as substrate preincubated for 10 mins and measured after 30 mins
[19] = Half life in human cancer patient at 2000 mg bid for 28 days by LC-MS method; assay type: ADME; settings: in vivo
[20] = Tmax in human cancer patient at 2000 mg bid for 28 days by LC-MS method; assay type: ADME; settings: in vivo
[21] = Antitumour activity in mouse B16 cells pretreated with compound followed by tumour implantation assessed as reduction in tumour size after 4 days relative to control; design: scale not given: the % may be the effect or the level left
[22] = molecular target: T1, Indoleamine 2,3-dioxygenase 1; experiment: Inhibition of recombinant human IDO1 expressed in COS1 cells by colorimetric method; assay type: cell-based

T1 sequence (P14902 whole entry): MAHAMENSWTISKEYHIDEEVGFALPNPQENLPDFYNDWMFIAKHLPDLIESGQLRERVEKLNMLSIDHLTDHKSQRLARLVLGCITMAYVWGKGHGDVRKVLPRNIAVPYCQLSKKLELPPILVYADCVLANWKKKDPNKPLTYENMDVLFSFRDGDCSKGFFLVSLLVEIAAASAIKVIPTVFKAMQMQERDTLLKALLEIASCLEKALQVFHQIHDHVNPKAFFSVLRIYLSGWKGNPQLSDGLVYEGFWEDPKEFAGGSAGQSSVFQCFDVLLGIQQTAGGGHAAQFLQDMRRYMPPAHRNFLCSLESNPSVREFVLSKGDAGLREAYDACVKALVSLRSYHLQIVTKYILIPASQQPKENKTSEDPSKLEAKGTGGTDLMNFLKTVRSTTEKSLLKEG
T2 sequence (P28776 whole entry): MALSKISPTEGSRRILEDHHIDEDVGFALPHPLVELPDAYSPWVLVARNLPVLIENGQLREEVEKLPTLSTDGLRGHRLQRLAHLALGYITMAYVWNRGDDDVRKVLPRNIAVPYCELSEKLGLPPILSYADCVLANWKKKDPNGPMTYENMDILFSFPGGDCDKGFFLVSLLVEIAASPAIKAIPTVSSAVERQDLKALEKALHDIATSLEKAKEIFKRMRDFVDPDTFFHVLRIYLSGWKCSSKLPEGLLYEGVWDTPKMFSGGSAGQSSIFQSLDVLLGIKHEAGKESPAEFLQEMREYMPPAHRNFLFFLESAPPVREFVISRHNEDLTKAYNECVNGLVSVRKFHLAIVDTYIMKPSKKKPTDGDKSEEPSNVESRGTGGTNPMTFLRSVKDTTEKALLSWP

SMILES: NOCc1cccc(Cl)c1
- IC50 [1]: 109 nM

SMILES: C[C@@H](C(=O)Nc1ccc(Cl)cc1)[C@H]1CC[C@@H](c2ccnc3ccc(F)cc32)CC1
- inhibition (INH) [2]: >60%
- inhibition (INH) [3]: >45%

- IC50 [4]: 67 nM
SMILES: Clc1ccc(Nc2cn[nH]n2)cc1

- IC50 [5]: 4 µM
SMILES: C[C@@]12CC[C@H](O)CC1=C(O)C(=O)c1cc3c(cc12)C(=O)C1=C(C3=O)S(=O)(=O)CCN1

- IC50 [6]: 14.5 µM
SMILES: COc1cc(OC(=O)c2c(C)c(O)c(OC(=O)c3c(C)cc(O)c(C)c3O)c(C)c2OC)c(C)c(C)c1C(=O)O

- IC50 [7]: 7.7 µM
- IC50 [8]: 45 nM
SMILES: CC1(C)CCC[C@]2(C)[C@H]3CCC(C=O)C[C@H](O)[C@]3(C=O)CC[C@@H]12 (some centres not stated)

- IC50 [9]: 18 µM
- IC50 [10]: 18 µM
SMILES: CCOc1cc(C(=O)NC(=S)Nc2c(O)ccc3ccccc23)cc(OCC)c1OCC

- IC50 [12]: 164 nM
SMILES: Nc1ccc2cc3cccc[n+]3cc2c1
- GI50 [11]: 62 µM
- GI50 [13]: 86 µM

- IC50 [14]: 240 nM
SMILES: COC1=CC(=O)c2c(oc(C)c2CO)C1=O

- EC50 [15]: 24 µM
- Ki [16]: 24.5 µM
- EC50 [17]: 26.1 µM
SMILES: CSC(=S)NCc1c[nH]c2ccc(Br)cc12

- IC50 [18]: 80.3 nM
SMILES: COc1nsc2c1C(=O)c1c(O)cccc1C2=O

- half-life [19]: 630 min
- Tmax [20]: 2.9 h
SMILES: Cn1cc(C[C@H](N)C(=O)O)c2ccccc21 (racemic) [(L)-1-METHYLTRYPTOPHAN]

SMILES: O[C@H](C[C@H]1c2c(F)cccc2-c2cncn21)[C@H]1CC[C@H](O)CC1 [NAVOXIMOD]
- Activity [21]: 95%

- EC50 [22]: 12.8 µM
SMILES: CN1C(=O)C(Cc2c[nH]c3ccccc23)NC1=S (configuration not stated) [NECROSTATIN]
